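These data come from cells grown in 96-well plates and exposed to compound for 48 hours at five concentrations. The concentration for 50% growth inhibition is given as GI50.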 Active and inactive are the calls of the source. Cut-off read from the data, not from the text of the source: active = GI50 up to about 1.1 µM and inactive = higher.
Experiments:
Test in all cases: growth of human tumour cells (NCI), 48 h
MOLT-4 = test system: MOLT-4
NCI/ADR-RES = test system: NCI/ADR-RES
Malme-3M = test system: Malme-3M
LOX IMVI = test system: LOX IMVI
UACC-257 = test system: UACC-257
HCT-15 = test system: HCT-15
ACHN = test system: ACHN
OVCAR-4 = test system: OVCAR-4
U-251 = test system: U-251
PC-3 = test system: PC-3
SK-MEL-28 = test system: SK-MEL-28
K562 = test system: K562
786-0 = test system: 786-0
IGROV-1 = test system: IGROV-1
NCI-H460 = test system: NCI-H460
SNB-19 = test system: SNB-19
SK-OV-3 = test system: SK-OV-3
CAKI-1 = test system: CAKI-1
RXF 393 = test system: RXF 393
UO-31 = test system: UO-31

SMILES | GI50 (MOLT-4) | GI50 (NCI/ADR-RES) | GI50 (Malme-3M) | GI50 (LOX IMVI) | GI50 (UACC-257) | GI50 (HCT-15) [µM] | GI50 (ACHN) | GI50 (OVCAR-4) | GI50 (U-251) | GI50 (PC-3) | GI50 (SK-MEL-28) | GI50 (K562) | GI50 (786-0) | GI50 (IGROV-1) | GI50 (NCI-H460) | GI50 (SNB-19) | GI50 (SK-OV-3) | GI50 (CAKI-1) | GI50 (RXF 393) | GI50 (UO-31)
CC(=O)OCCn1cnc2nc(Nc3ccccc3)nc(Cl)c21 | 54.2 µM (inactive) | 95.3 µM (inactive) | > 100 µM (inactive) | 44.4 µM (inactive) | 76.9 µM (inactive) | 45.4 | 42 µM (inactive) | 43.3 µM (inactive) | 58.3 µM (inactive) | 62.7 µM (inactive) | > 100 µM (inactive) | 49 µM (inactive) | > 100 µM (inactive) | > 100 µM (inactive) | 51.9 µM (inactive) | > 100 µM (inactive) | > 100 µM (inactive) | – | – | –
c1ccc2c(c1)OC(N1CCCC1)c1cnc(N3CCOCC3)nc1-2 (centres undefined) | 32.9 µM (inactive) | – | 21.9 µM (inactive) | 54.3 µM (inactive) | 25.2 µM (inactive) | 45.4 | 38.2 µM (inactive) | 41.6 µM (inactive) | > 100 µM (inactive) | 41.3 µM (inactive) | > 100 µM (inactive) | 62.5 µM (inactive) | 59.8 µM (inactive) | – | 53.3 µM (inactive) | 53 µM (inactive) | 35.2 µM (inactive) | 27.8 µM (inactive) | 21.7 µM (inactive) | 19.3 µM (inactive)
CCOC(=O)c1ccc(Nc2nc3ccccc3nc2C(=O)OCC)cc1 | > 100 µM (inactive) | > 100 µM (inactive) | > 100 µM (inactive) | – | – | > 100 | > 100 µM (inactive) | > 100 µM (inactive) | > 100 µM (inactive) | – | > 100 µM (inactive) | > 100 µM (inactive) | 57.7 µM (inactive) | > 100 µM (inactive) | > 100 µM (inactive) | > 100 µM (inactive) | > 100 µM (inactive) | > 100 µM (inactive) | – | > 100 µM (inactive)
Cc1ccc(C)c2c1NC(=O)/C2=N\Nc1ccccc1[N+](=O)[O-] | > 100 µM (inactive) | – | – | > 100 µM (inactive) | > 100 µM (inactive) | > 100 | > 100 µM (inactive) | 38 µM (inactive) | 85.5 µM (inactive) | > 100 µM (inactive) | > 100 µM (inactive) | 74.1 µM (inactive) | 61.5 µM (inactive) | 10.7 µM (inactive) | > 100 µM (inactive) | > 100 µM (inactive) | > 100 µM (inactive) | > 100 µM (inactive) | > 100 µM (inactive) | > 100 µM (inactive)
O=c1/c(=C\c2ccccc2)sc2n1C(c1ccccc1)C1(O)CCCCC1N=2 (centres undefined) | 42.1 µM (inactive) | – | > 100 µM (inactive) | > 100 µM (inactive) | > 100 µM (inactive) | > 100 | 87.9 µM (inactive) | 50.6 µM (inactive) | > 100 µM (inactive) | 69.7 µM (inactive) | > 100 µM (inactive) | 45.2 µM (inactive) | > 100 µM (inactive) | > 100 µM (inactive) | 90.2 µM (inactive) | > 100 µM (inactive) | – | > 100 µM (inactive) | – | 44.2 µM (inactive)
CC1C(c2cc(C(C)(C)C)c(O)c(C(C)(C)C)c2)c2cc3c(cc2OC1N1CCOCC1)OCO3 (centres undefined) | > 100 µM (inactive) | 27.4 µM (inactive) | – | 20.3 µM (inactive) | 34.6 µM (inactive) | > 10 | 7.69 µM (inactive) | – | – | 14.2 µM (inactive) | 15.6 µM (inactive) | 27.1 µM (inactive) | 13.7 µM (inactive) | 36.2 µM (inactive) | 21.6 µM (inactive) | 15.7 µM (inactive) | – | – | – | 12.4 µM (inactive)
CC(=O)c1[nH]c(Nc2ccc(C)cc2)c(C(=S)Nc2ccccc2)c1N | 30.1 µM (inactive) | 26.8 µM (inactive) | 17.1 µM (inactive) | 16.4 µM (inactive) | 18.5 µM (inactive) | 18.3 | 18.8 µM (inactive) | 17.5 µM (inactive) | 14.4 µM (inactive) | – | 19.5 µM (inactive) | 9.31 µM (inactive) | 17.7 µM (inactive) | 16.8 µM (inactive) | 15.7 µM (inactive) | 16.8 µM (inactive) | 34.3 µM (inactive) | 16.9 µM (inactive) | 13.3 µM (inactive) | 13.2 µM (inactive)
O=C(c1ccco1)N(C(=S)N1CCN(c2ccccc2)CC1)c1ccccc1 | > 100 µM (inactive) | – | > 100 µM (inactive) | > 100 µM (inactive) | > 100 µM (inactive) | > 100 | > 100 µM (inactive) | > 100 µM (inactive) | > 100 µM (inactive) | – | > 100 µM (inactive) | > 100 µM (inactive) | > 100 µM (inactive) | > 100 µM (inactive) | > 100 µM (inactive) | > 100 µM (inactive) | > 100 µM (inactive) | > 100 µM (inactive) | > 100 µM (inactive) | 66.8 µM (inactive)
CNC(C)Cc1ccccc1O (centres undefined) | > 100 µM (inactive) | – | > 100 µM (inactive) | > 100 µM (inactive) | > 100 µM (inactive) | 8.71 | > 100 µM (inactive) | > 100 µM (inactive) | > 100 µM (inactive) | – | > 100 µM (inactive) | > 100 µM (inactive) | > 100 µM (inactive) | > 100 µM (inactive) | > 100 µM (inactive) | > 100 µM (inactive) | > 100 µM (inactive) | > 100 µM (inactive) | > 100 µM (inactive) | > 100 µM (inactive)
Cc1ccc(C(=O)C(C)N)cc1 (centres undefined) | > 100 µM (inactive) | – | > 100 µM (inactive) | > 100 µM (inactive) | > 100 µM (inactive) | > 100 | > 100 µM (inactive) | > 100 µM (inactive) | > 100 µM (inactive) | – | > 100 µM (inactive) | > 100 µM (inactive) | > 100 µM (inactive) | > 100 µM (inactive) | > 100 µM (inactive) | > 100 µM (inactive) | > 100 µM (inactive) | > 100 µM (inactive) | > 100 µM (inactive) | > 100 µM (inactive)
COC(=O)C1=Cc2cc(OC)c(OC)cc2[C@H](c2ccc(OC)c(OC)c2)C1C(=O)OC (some centres undefined) | > 100 µM (inactive) | – | > 100 µM (inactive) | > 100 µM (inactive) | > 100 µM (inactive) | 76 | > 100 µM (inactive) | > 100 µM (inactive) | > 100 µM (inactive) | – | > 100 µM (inactive) | > 100 µM (inactive) | > 100 µM (inactive) | > 100 µM (inactive) | > 100 µM (inactive) | > 100 µM (inactive) | > 100 µM (inactive) | > 100 µM (inactive) | > 100 µM (inactive) | > 100 µM (inactive)
CC(=O)OCC1OC(n2c(=O)[nH]c(=O)c3nn[nH]c32)C(OC(C)=O)C(OC(C)=O)C1OC(C)=O (centres undefined) | > 100 µM (inactive) | – | > 100 µM (inactive) | > 100 µM (inactive) | > 100 µM (inactive) | > 100 | > 100 µM (inactive) | 66.5 µM (inactive) | > 100 µM (inactive) | – | > 100 µM (inactive) | > 100 µM (inactive) | > 100 µM (inactive) | > 100 µM (inactive) | > 100 µM (inactive) | > 100 µM (inactive) | > 100 µM (inactive) | > 100 µM (inactive) | > 100 µM (inactive) | > 100 µM (inactive)

— ChEMBL document CHEMBL1201862, “PubChem BioAssay data set” (2004)
